Laboratory results reported in EP4635500A1, “THERAPEUTIC AGENT FOR BACTERIAL INFECTION” (Sumitomo Pharma Co., Ltd., priority 2022, dated 2024).
Where two headings read alike, the source gives them in different places.

System: Enterobacterales
Assay: MIC, broth microdilution, CDC/FDA Antibiotic Resistance Isolate Bank (Example 7, Tables 8, 11, 12)
Format: cell-based
Details: for MIC: read-out: MIC

NCC[C@H](O)C(=O)N[C@@H]1C[C@H](N)[C@@H](O[C@H]2O[C@H](CN)[C@@H](O)[C@H](O)[C@H]2O)[C@H](O)[C@H]1O[C@H]1O[C@H](CO)[C@@H](O)[C@H](N)[C@H]1O [Amikacin, amikacin]
32 µg/mL: MIC (Klebsiella pnemnonine, KUB No. 5758, AR Bank # 362) | MIC (Klebsiella pneumoniae, KUB No. 55, AR Bank# 47) | MIC (Klebsiella pneumoniae, KUB No. 5537, AR Bank# 40) | MIC (Klebsiella pneumoniae, KUB No. 5595, AR Bank # 98) | MIC (Klebsiella pneumoniae, KUB No. 5609, AR Bank # 112) | MIC (Klebsiella pneumoniae, KUB No. 5610, AR Bank # 113) | MIC (Klebsiella pneumoniae, KUB No. 5614, AR Bank # 117) | MIC (Klebsiella pneumoniae, KUB No. 5617, AR Bank # 120) | MIC (Klebsiella pneumoniae, KUB No. 5622, AR Bank # 125) | MIC (Klebsiella pneumoniae, KUB No. 5626, AR Bank # 129)
0.25 µg/mL: MIC (Enterobacter cloacae, KUB No. 5570, AR Bank # 73)
16 µg/mL: MIC (Enterobacter cloacae, Enterobacter cloacae KUB No. 5792, AR Bank #448) | MIC (Enterobacter cloacae, KUB No. 5761, AR Bank # 365) | MIC (Escherichia coli, KUB No. 5558, AR Bank # 61) | MIC (Escherichia coli, KUB No. 5566, AR Bank # 69) | MIC (Escherichia coli, KUB No. 5634, AR Bank # 137) | MIC (Escherichia coli, KUB No. 5780, AR Bank # 434) | MIC (Klebsiella pneumoniae, KUB No. 5541, AR Bank# 44) | MIC (Klebsiella pneumoniae, KUB No. 5543, AR Bank# 46)
1 µg/mL: MIC (Enterobacter cloacae, Enterobacter cloacae complex, KUB No. 5661, AR Bank # 164) | MIC (Enterobacter cloacae, Enterobacter cloacae group, KUB No. 5629, AR Bank # 132) | MIC (Enterobacter cloacae, KUB No. 5529, AR Bank# 32) | MIC (Enterobacter cloacae, KUB No. 5547, AR Bank# 50) | MIC (Enterobacter cloacae, KUB No. 5557, AR Bank# 60) | MIC (Enterobacter cloacae, KUB No. 5562, AR Bank # 65) | MIC (Enterobacter cloacae, KUB No. 5569, AR Bank # 72) | MIC (Enterobacter cloacae, KUB No. 5763, AR Bank # 367) | MIC (Escherichia coli, Escherichia coli KUB No. 5796, AR Bank #452) | MIC (Escherichia coli, Escherichia coli KUB No. 5803, AR Bank #861) | MIC (Escherichia coli, KUB No. 5574, AR Bank # 77) | MIC (Escherichia coli, KUB No. 5582, AR Bank # 85) | MIC (Escherichia coli, KUB No. 5583, AR Bank # 86) | MIC (Escherichia coli, KUB No. 5586, AR Bank # 89) | MIC (Escherichia coli, KUB No. 5601, AR Bank # 104) | MIC (Escherichia coli, KUB No. 5611, AR Bank # 114) | MIC (Escherichia coli, KUB No. 5648, AR Bank # 151) | MIC (Escherichia coli, KUB No. 5659, AR Bank # 162) | MIC (Escherichia coli, KUB No. 5769, AR Bank # 373) | MIC (Escherichia coli, KUB No. 5770, AR Bank # 374) | MIC (Escherichia coli, KUB No. 5774, AR Bank # 378) | MIC (Escherichia, KUB No. 57, AR Bank # 436 (row cut off)) | MIC (Klebsiella oxytoca, KUB No. 5776, AR Bank # 380) | MIC (Klebsiella pneumoniae, KUB No. 5531, AR Bank# 34) | MIC (Klebsiella pneumoniae, KUB No. 5540, AR Bank# 43) | MIC (Klebsiella pneumoniae, KUB No. 5584, AR Bank # 87)
64 µg/mL: MIC (Enterobacter cloacae, KUB No. 5550, AR Bank# 53) | MIC (Klebsiella pneumoniae, KUB No. 5565, AR Bank # 68) | MIC (Klebsiella pneumoniae, KUB No. 5594, AR Bank # 97)
4 µg/mL: MIC50 (154 strains of Enterobacterales, read-out: MIC50) | MIC (Enterobacter cloacae, Enterobacter cloacae KUB No. 5807, AR Bank #501) | MIC (Enterobacter cloacae, KUB No. 5660, AR Bank # 163) | MIC (Enterobacter cloacae, KUB No. 5762, AR Bank # 366) | MIC (Escherichia coli, KUB No. 5766, AR Bank # 370) | MIC (Klebsiella oxytoca, KUB No. 5771, AR Bank # 375) | MIC (Klebsiella pneumoniae, KUB No. 5536, AR Bank# 39) | MIC (Klebsiella pneumoniae, KUB No. 5577, AR Bank # 80) | MIC (Klebsiella pneumoniae, KUB No. 5623, AR Bank # 126)
2 µg/mL: MIC (Enterobacter cloacae, Enterobacter cloacae KUB No. 5808, AR Bank #502) | MIC (Enterobacter cloacae, KUB No. 5590, AR Bank # 93) | MIC (Enterobacter cloacae, KUB No. 5778, AR Bank # 432) | MIC (Enterobacter clooreae, KUB No. 5633, AR Bank # 136) | MIC (Escherichia coli, Escherichia coli KUB No. 5783, AR Bank #437) | MIC (Escherichia coli, Escherichia coli KUB No. 5794, AR Bank #450) | MIC (Escherichia coli, KUB No. 5564, AR Bank # 67) | MIC (Escherichia coli, KUB No. 5578, AR Bank # 81) | MIC (Escherichia coli, KUB No. 5646, AR Bank # 149) | MIC (Escherichia coli, KUB No. 5764, AR Bank # 368) | MIC (Escherichia coli, KUB No. 5765, AR Bank # 369) | MIC (Escherichia coli, KUB No. 5768, AR Bank # 372) | MIC (Klebsiella aerogenes, Enterobacter aerogenes, KUB No. 5559, AR Bank # 62) | MIC (Klebsiella aerogenes, Enterobacter aerogenes, KUB No. 5571, AR Bank # 74) | MIC (Klebsiella aerogenes, Enterobacter aerogenes, KUB No. 5658, AR Bank # 161)
0.5 µg/mL: MIC (Escherichia coli, KUB No. 5581, AR Bank # 84) | MIC (Escherichia coli, KUB No. 5647, AR Bank # 150) | MIC (Escherichia coli, KUB No. 5767, AR Bank # 371) | MIC (Escherichia coli, KUB No. 5779, AR Bank # 433) | MIC (Klebsiella aerogenes, Enterobacter aerogenes, KUB No. 5777, AR Bank # 431) | MIC (Klebsiella oxytoca, KUB No. 5568, AR Bank # 71) | MIC (Klebsiella oxytoca, KUB No. 5644, AR Bank # 147) | MIC (Klebsiella pneumoniae, KUB No. 5612, AR Bank # 115)
> 64 µg/mL: MIC90 (154 strains of Enterobacterales, read-out: MIC90) | MIC (Citrobacter freundii, KUB No. 5654, AR Bank # 157) | MIC (Enterobacter cloacae, KUB No. 5535, AR Bank# 38) | MIC (Escherichia coli, KUB No. 5615, AR Bank # 118) | MIC (Escherichia coli, KUB No. 5616, AR Bank # 119) | MIC (Escherichia coli, KUB No. 5625, AR Bank # 128) | MIC (Escherichia coli, KUB No. 5781, AR Bank # 435) | MIC (Klebsiella ozaenae, KUB No. 5548, AR Bank# 51) | MIC (Klebsiella pneumoniae, KUB No. 5538, AR Bank# 41) | MIC (Klebsiella pneumoniae, KUB No. 5546, AR Bank# 49) | MIC (Klebsiella pneumoniae, KUB No. 5572, AR Bank # 75) | MIC (Klebsiella pneumoniae, KUB No. 5576, AR Bank # 79) | MIC (Klebsiella pneumoniae, KUB No. 5603, AR Bank # 106) | MIC (Klebsiella pneumoniae, KUB No. 5604, AR Bank # 107) | MIC (Klebsiella pneumoniae, KUB No. 5635, AR Bank # 138) | MIC (Klebsiella pneumoniae, KUB No. 5636, AR Bank # 139) | MIC (Klebsiella pneumoniae, KUB No. 5637, AR Bank # 140) | MIC (Klebsiella pneumoniae, KUB No. 5638, AR Bank # 141)
8 µg/mL: MIC (Enterobacter cloaccae, KUB No. 5651, AR Bank # 154) | MIC (Escherichia coli, Escherichia coli KUB No. 5795, AR Bank #451) | MIC (Klebsiella ozaenae, KUB No. 5593, AR Bank # 96) | MIC (Klebsiella pneumoniae, KUB No. 5563, AR Bank # 66) | MIC (Klebsiella pneumoniae, KUB No. 5573, AR Bank # 76) | MIC (Klebsiella pneumoniae, KUB No. 5606, AR Bank # 109) | MIC (Klebsiella pneumoniae, KUB No. 5632, AR Bank # 135)
